Molecular target: T1, proton pump (H+/K+-ATPase), porcine gastric vesicles (Sus scrofa, UniProt P19156)
T1 construct: reaction buffer (50 mmol/L Tris-Hepes buffer, pH 6.4) containing porcine gastric vesicles; from tissue; host or cells: porcine gastric mucosa (gastric vesicles prepared by centrifugation)
Assay: Inhibitory effects against proton pump (H+/K+-ATPase) activity, malachite green phosphate assay
Type: biochemical
Settings: pH 6.4, 37° C., K+-dependent activity
Experimental: Test Example 1: Preparation of Gastric Vesicles
Gastric vesicles used in the experiment were prepared by separation from porcine gastric mucosa according to a centrifugation method [Saccomani G, et al., A Nonelectrogenic H^+ Pump in Plasma Membranes of Hog Stomach, J Biol Chem., 1976, 251 (23), 7690-8]. Next, the protein content of the gastric vesicles was quantified using a bicinchoninic acid kit [Smith P K, et al., Measurement of protein using bicinchoninic acid, Anal Biochem., 1985, 150 (1), 76-85)].
Test Example 2: Measurement of Inhibitory Effects Against Proton Pump (H^+/K^+-ATPase) Activity
The inhibitory effects of the compounds against proton pump activity were calculated based on the pump activity determined in the presence of K^+ ions excluding the pump activity determined in the absence of K^+ ions. The inhibitory effects against proton pump activity were measured in 96-well plates, and all reactions were performed with a reaction volume of […] at 37° C. Specifically, 10 μm of valinomycin and each concentration of each compound were pre-incubated in a reaction buffer (50 mmol/L Tris-Hepes buffer, pH 6.4) containing porcine gastric vesicles for 15 minutes. For negative and positive control groups, 1% DMSO was added to buffer, and for test groups, 1% DMSO and a dilution of each concentration of each compound were added. Next, 0.2 mmol/L of adenosine triphosphate (ATP) was added to the reaction buffer and incubated at 37° C. for 40 minutes. After completion of the incubation, a malachite green solution was added to the reaction buffer and incubated for 30 minutes, and the amount of inorganic phosphate in the reaction buffer was measured by colorimetry using a malachite green phosphate assay Kit (Bioassay Systems). For colorimetry, the OD (optical density) at 620 nm was measured using a microplate reader [Synergy H4, hybrid multimode microplate reader, BioTek]. The percent inhibition of proton pump (H^+/K^+-ATPase) was determined based on the OD value of the control group and the OD values of various concentrations of the test compounds, and the IC50 of each test compound was calculated using the Logistic 4-parameter function of Sigmaplot 8.0 program.

T1 sequence (P19156 2-1034 limits assumed): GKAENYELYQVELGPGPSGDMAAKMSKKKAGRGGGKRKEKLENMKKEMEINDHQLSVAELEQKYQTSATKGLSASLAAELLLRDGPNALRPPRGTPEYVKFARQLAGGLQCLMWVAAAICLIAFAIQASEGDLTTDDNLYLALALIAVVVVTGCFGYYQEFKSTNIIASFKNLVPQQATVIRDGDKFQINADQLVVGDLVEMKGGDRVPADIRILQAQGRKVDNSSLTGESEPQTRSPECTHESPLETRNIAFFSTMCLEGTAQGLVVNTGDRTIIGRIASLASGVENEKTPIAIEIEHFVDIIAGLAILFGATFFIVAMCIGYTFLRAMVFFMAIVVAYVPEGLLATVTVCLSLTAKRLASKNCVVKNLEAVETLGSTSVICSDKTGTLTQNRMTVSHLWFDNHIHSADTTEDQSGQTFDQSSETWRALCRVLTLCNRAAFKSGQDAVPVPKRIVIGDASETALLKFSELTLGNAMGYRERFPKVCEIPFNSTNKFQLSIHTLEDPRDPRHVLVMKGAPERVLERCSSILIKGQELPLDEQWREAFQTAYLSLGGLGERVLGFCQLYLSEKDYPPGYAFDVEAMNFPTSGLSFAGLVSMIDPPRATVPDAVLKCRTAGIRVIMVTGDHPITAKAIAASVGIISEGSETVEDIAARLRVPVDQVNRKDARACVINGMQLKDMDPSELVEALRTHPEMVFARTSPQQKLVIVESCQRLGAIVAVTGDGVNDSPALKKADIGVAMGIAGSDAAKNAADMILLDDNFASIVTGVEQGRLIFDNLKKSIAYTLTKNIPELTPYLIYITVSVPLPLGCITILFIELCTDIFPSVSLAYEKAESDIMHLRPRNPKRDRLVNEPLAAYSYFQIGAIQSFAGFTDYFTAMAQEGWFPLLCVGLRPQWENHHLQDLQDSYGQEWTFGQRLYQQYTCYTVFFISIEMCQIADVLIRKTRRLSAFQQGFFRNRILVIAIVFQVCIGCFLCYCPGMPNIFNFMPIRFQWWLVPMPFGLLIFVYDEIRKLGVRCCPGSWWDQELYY
T1 sequence (P18434 whole entry partner): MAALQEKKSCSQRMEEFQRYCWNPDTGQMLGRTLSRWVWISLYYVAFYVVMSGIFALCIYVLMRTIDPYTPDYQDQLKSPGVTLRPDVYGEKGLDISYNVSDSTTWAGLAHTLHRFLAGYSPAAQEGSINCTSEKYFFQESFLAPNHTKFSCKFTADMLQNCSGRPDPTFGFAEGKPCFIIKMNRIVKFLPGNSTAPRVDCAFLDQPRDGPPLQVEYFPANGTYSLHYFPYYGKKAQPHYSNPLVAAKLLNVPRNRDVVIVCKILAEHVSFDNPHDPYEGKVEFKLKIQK

Row | Compound | IC50 [nM]
1 | CC(=O)OC1CN(C(=O)c2cc(NCc3c(C)cccc3C)c3nc(C)c(C)n3c2)C1 [Example 2, 1-{8-[(2,6-dimethylbenzyl)amino]-2,3-dimethylimidazo[1,2-α]pyridine-6-carbonyl}azetidin-3-yl acetate] | 128
2 | COC1CN(C(=O)c2cc(NCc3c(C)cccc3C)c3nc(C)c(C)n3c2)C1 [Example 3, {8-[(2,6-dimethylbenzyl)amino]-2,3-dimethylimidazo[1,2-α]pyridin-6-yl}(3-methoxyazetidin-1-yl)methanone] | 90
3 | CCOC1CN(C(=O)c2cc(NCc3c(C)cccc3C)c3nc(C)c(C)n3c2)C1 [Example 4, {8-[(2,6-dimethylbenzyl)amino]-2,3-dimethylimidazo[1,2-α]pyridin-6-yl}(3-ethoxyazetidin-1-yl)methanone] | 93
4 | COCCOC1CN(C(=O)c2cc(NCc3c(C)cccc3C)c3nc(C)c(C)n3c2)C1 [Example 5, {8-[(2,6-dimethylbenzyl)amino]-2,3-dimethylimidazo[1,2-α]pyridin-6-yl}[3-(2-methoxyethoxy)azetidin-1-yl]methanone] | 117
5 | COC(=O)C1CN(C(=O)c2cc(NCc3c(C)cccc3C)c3nc(C)c(C)n3c2)C1 [Example 10, methyl 1-{8-[(2,6-dimethylbenzyl)amino]-2,3-dimethylimidazo[1,2-α]pyridine-6-carbonyl}azetidine-3-carboxylate] | 48
6 | COCC1CN(C(=O)c2cc(NCc3c(C)cccc3C)c3nc(C)c(C)n3c2)C1 [Example 12, {8-[(2,6-dimethylbenzyl)amino]-2,3-dimethylimidazo[1,2-α]pyridin-6-yl}[3-(methoxymethyl)azetidin-1-yl]methanone] | 65
7 | Cc1cccc(C)c1CNc1cc(C(=O)N2CC(F)(CO)C2)cn2c(C)c(C)nc12 [Example 13, {8-[(2,6-dimethylbenzyl)amino]-2,3-dimethylimidazo[1,2-α]pyridin-6-yl}[3-fluoro-3-(hydroxymethyl)azetidin-1-yl]methanone] | 119
8 | Cc1cccc(C)c1CNc1cc(C(=O)N2CC(C)(CO)C2)cn2c(C)c(C)nc12 [Example 14, {8-[(2,6-dimethylbenzyl)amino]-2,3-dimethylimidazo[1,2-α]pyridin-6-yl}[3-(hydroxymethyl)-3-methylazetidin-1-yl]methanone] | 104
9 | Cc1cccc(C)c1CNc1cc(C(=O)N2CC(C(C)O)C2)cn2c(C)c(C)nc12 (stereo not drawn) [Example 15, {8-[(2,6-dimethylbenzyl)amino]-2,3-dimethylimidazo[1,2-α]pyridin-6-yl}[3-(1-hydroxyethyl)azetidin-1-yl]methanone] | 72
10 | Cc1cccc(C)c1CNc1cc(C(=O)N2CC(C(C)(C)O)C2)cn2c(C)c(C)nc12 [Example 16, {8-[(2,6-dimethylbenzyl)amino]-2,3-dimethylimidazo[1,2-α]pyridin-6-yl}[3-(2-hydroxypropan-2-yl)azetidin-1-yl]methanone] | 122
11 | Cc1cccc(C)c1CNc1cc(C(=O)N2CCC2CO)cn2c(C)c(C)nc12 (stereo not drawn) [Example 17, {8-[(2,6-dimethylbenzyl)amino]-2,3-dimethylimidazo[1,2-α]pyridin-6-yl}[2-(hydroxymethyl)azetidin-1-yl]methanone] | 180
12 | CC(=O)C1CN(C(=O)c2cc(NCc3c(C)cccc3C)c3nc(C)c(C)n3c2)C1 [Example 18, 1-{1-[8-({2,6-dimethylbenzyl}amino)-2,3-dimethylimidazo[1,2-α]pyridine-6-carbonyl]azetidin-3-yl}ethanone] | 140
13 | Cc1cccc(C)c1CNc1cc(C(=O)N2CC(S(C)(=O)=O)C2)cn2c(C)c(C)nc12 [Example 19, {8-[(2,6-dimethylbenzyl)amino]-2,3-dimethylimidazo[1,2-α]pyridin-6-yl}[3-(methylsulfonyl)azetidin-1-yl]methanone] | 117
14 | Cc1cccc(C)c1CNc1cc(C(=O)N2CC(CCO)C2)cn2c(C)c(C)nc12 [Example 20, {8-[(2,6-dimethylbenzyl)amino]-2,3-dimethylimidazo[1,2-α]pyridin-6-yl}[3-(2-hydroxyethyl)azetidin-1-yl]methanone] | 46
15 | Cc1cccc(C)c1CNc1cc(C(=O)N2CC3(CNC3)C2)cn2c(C)c(C)nc12 [Example 21, {8-[(2,6-dimethylbenzyl)amino]-2,3-dimethylimidazo[1,2-α]pyridin-6-yl}(2,6-diazaspiro[3.3]heptan-2-yl)methanone] | 600
16 | Cc1cccc(C)c1CNc1cc(C(=O)N2CC3(COC3)C2)cn2c(C)c(C)nc12 [Example 22, {8-[(2,6-dimethylbenzyl)amino]-2,3-dimethylimidazo[1,2-α]pyridin-6-yl}(2-oxa-6-azaspiro[3.3]heptan-6-yl)methanone] | 79
17 | Cc1ccccc1CNc1cc(C(=O)N2CC(O)C2)cn2c(C)c(C)nc12 [Example 23, {2,3-dimethyl-8-[(2-methylbenzyl)amino]imidazo[1,2-α]pyridin-6-yl}(3-hydroxyazetidin-1-yl)methanone] | 374
18 | Cc1cc(F)ccc1CNc1cc(C(=O)N2CC(O)C2)cn2c(C)c(C)nc12 [Example 27, {8-[(4-fluoro-2-methylbenzyl)amino]-2,3-dimethylimidazo[1,2-α]pyridin-6-yl}(3-hydroxyazetidin-1-yl)methanone] | 135
19 | Cc1cc(F)ccc1CNc1cc(C(=O)N2CCC2)cn2c(C)c(C)nc12 [Example 28, azetidin-1-yl {8-[(4-fluoro-2-methylbenzyl)amino]-2,3-dimethylimidazo[1,2-α]pyridin-6-yl}methanone] | 103
20 | Cc1cc(F)ccc1CNc1cc(C(=O)N2CC(F)C2)cn2c(C)c(C)nc12 [Example 29, {8-[(4-fluoro-2-methylbenzyl)amino]-2,3-dimethylimidazo[1,2-α]pyridin-6-yl}(3-fluoroazetidin-1-yl)methanone] | 645
21 | Cc1cc(F)ccc1CNc1cc(C(=O)N2CC(C)C2)cn2c(C)c(C)nc12 [Example 30, {8-[(4-fluoro-2-methylbenzyl)amino]-2,3-dimethylimidazo[1,2-α]pyridin-6-yl}(3-methylazetidin-1-yl)methanone] | 271
22 | Cc1cc(F)ccc1CNc1cc(C(=O)N2CC(C)(O)C2)cn2c(C)c(C)nc12 [Example 31, {8-[(4-fluoro-2-methylbenzyl)amino]-2,3-dimethylimidazo[1,2-α]pyridin-6-yl}(3-hydroxy-3-methylazetidine-1-yl)methanone] | 662
23 | COC1(C)CN(C(=O)c2cc(NCc3c(C)cccc3C)c3nc(C)c(C)n3c2)C1 [Example 32, {8-[(2,6-dimethylbenzyl)amino]-2,3-dimethylimidazo[1,2-α]pyridin-6-yl}(3-methoxy-3-methylazetidin-1-yl)methanone] | 187
24 | Cc1cc(F)cc(C)c1CNc1cc(C(=O)N2CCC2)cn2c(C)c(C)nc12 [Example 35, azetidin-1-yl{8-[(4-fluoro-2,6-dimethylbenzyl)amino]-2,3-dimethylimidazo[1,2-α]pyridin-6-yl}methanone] | 16
25 | Cc1cc(F)cc(C)c1CNc1cc(C(=O)N2CC(C)C2)cn2c(C)c(C)nc12 [Example 37, {8-[(4-fluoro-2,6-dimethylbenzyl)amino]-2,3-dimethylimidazo[1,2-α]pyridin-6-yl}(3-methylazetidin-1-yl)methanone] | 21
26 | Cc1cc(F)cc(C)c1CNc1cc(C(=O)N2CC(C)(O)C2)cn2c(C)c(C)nc12 [Example 38, {8-[(4-fluoro-2,6-dimethylbenzyl)amino]-2,3-dimethylimidazo[1,2-α]pyridin-6-yl}(3-hydroxy-3-methylazetidin-1-yl)methanone] | 41
27 | COCC1CN(C(=O)c2cc(NCc3c(C)cc(F)cc3C)c3nc(C)c(C)n3c2)C1 [Example 40, {8-[(4-fluoro-2,6-dimethylbenzyl)amino]-2,3-dimethylimidazo[1,2-α]pyridin-6-yl}[3-(methoxymethyl)azetidin-1-yl]methanone] | 134
28 | Cc1ccc(F)c(C)c1CNc1cc(C(=O)N2CC(O)C2)cn2c(C)c(C)nc12 [Example 41, {8-[(3-fluoro-2,6-dimethylbenzyl)amino]-2,3-dimethylimidazo[1,2-α]pyridin-6-yl}(3-hydroxyazetidin-1-yl)methanone] | 149
29 | Cc1ccc(F)c(C)c1CNc1cc(C(=O)N2CCC2)cn2c(C)c(C)nc12 [Example 42, azetidin-1-yl{8-[(3-fluoro-2,6-dimethylbenzyl)amino]-2,3-dimethylimidazo[1,2-α]pyridin-6-yl}methanone] | 85
30 | Cc1ccc(F)c(C)c1CNc1cc(C(=O)N2CC(F)C2)cn2c(C)c(C)nc12 [Example 43, {8-[(3-fluoro-2,6-dimethylbenzyl)amino]-2,3-dimethylimidazo[1,2-α]pyridin-6-yl}(3-fluoroazetidin-1-yl)methanone] | 174
